Bounds are passed on as bounds.

Common to all, as to format: biochemical
For one test, the system named is MYC. The test is described as follows: In vitro transcription-translation (IVTT) assay, MYC reporter. The conditions noted are these: IVTT assay, HeLa S3 lysate, MYC reporter, normalized sfGFP/mCherry ratio; half-log dilutions 30 μM-0.1 μM, 2 hrs at 30° C. A digest of the protocol:
(§1)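 Reporter: mCherry, P2A, then 3×FLAG-target peptide-sfGFP fusion, IRES-initiated; HeLa S3 lysate IVTT; cpd dilutions 30 μM−0.1 μM half-log in 100% DMSO (dilution-plate conc); DNA added last; 2 h, 30° C; PBS quench.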

A further test concerns CCND1. The test is described as follows: In vitro transcription-translation (IVTT) assay, CCND1 reporter. The settings on record: IVTT, HeLa S3 lysate, 2 hrs at 30° C. A digest of the protocol: as §1
The next test has as its system MCL-1. As to the kind of experiment: In vitro transcription-translation (IVTT) assay, MCL-1 reporter. The conditions noted are these: IVTT, HeLa S3 lysate, 2 hrs at 30° C.; read-out: MCL1 IC50. A digest of the protocol:
as §1

The next test deals with CCNTB1. As to the kind of experiment: In vitro transcription-translation (IVTT) assay, CCNTB1 reporter. The conditions noted are these: HeLa S3 lysate, 2 hrs at 30° C. Here is the method: Each preparation takes 8 cell pellets (4 ml packed volume each, approximately 1.0×10^9 cells per pellet). Thaw cell pellets from −80° C. on ice for 90 mins. Lay pellets horizontally on top of the ice and rotate every 30 mins to ensure even thawing. Once thawed, add 4 mL of cold lysis buffer to each pellet, and using a serological pipet, gently pipet up and down to break up clumps. Incubate resuspended cells in ice for an additional 30 mins (plunged into ice). During 30 min incubation, rinse and RNase-zap (Ambion) glass dounces (use loose pestle “A”), gently dry and place on ice until needed. Prepare RNase-free Eppendorf tubes for spinning and for batch storage. Add batch labels to 1.5-1.7 mL RNase-free microcentrifuge tubes (labeling scheme below). Each batch will have an extra 1.5-1.7 mL RNase-free microcentrifuge tube for 40 μL of lysate, label the top of this tube (labeling scheme below). After 30 min incubation, transfer all 8 mL of cell pellet to dounce. Cell lysis is complete after douncing 100 times. Aliquot cell lysis into 1.5-1.7 mL temporary-microcentrifuge tubes. Place tubes in centrifuge with “fins” out, and spin at 1,200×g for 5 mins. After the first spin use a 1 mL pipet to resuspend each tube and repeat spin. This acts as an additional lysis step, is more vigorous and increases lysate yield. During second spin get liquid N2 and a fresh conical tube on ice. After spin is complete, transfer supernatant (lysate) from microcentrifuge tubes into the 50 mL conical tube and keep on ice. Repeat steps 10-14 for all other cell pellets until completed. Once all cell lysate has been transferred to the 50 mL conical tube pipet to mix so the solution is homogenous. Transfer 1 mL of lysate into batch-labeled microcentrifuge tubes and flash freeze in liquid nitrogen. Be sure to pipet up and down to mix throughout transfer step. Place all tubes in the […] for long-term storage.
In vitro transcription-translation assay setup: Each assay includes a master mix containing lysate and shared components, a 96-well plate containing compound titrations for testing, a 96-well DNA plate with reporter constructs to be tested, 96-well skirted PCR plates, and 96-well flat-bottom, black, fluorescent assay plates. Reaction materials setup: (A) Master mix—15 mL conical tube (3 mL of HeLa S3 Lysate described above; 0.6 mL of ThermoFisher Accessory Proteins (#88882); 1.2 ml of ThermoFisher Reaction Mix (#88882); 0.54 mL of nuclease-free Water); (B) 96-Well Master Mix+Compound Plate (Half-log dilutions (30 μM−0.1 μM) of 4 compounds of interest are prepared in 100% DMSO); 96-Well DNA Plate (Five DNA constructs are plated into single columns within the plate. Row 1 of the column contains nuclease free H2O, all other wells contain 110 ng/μL plasmid DNA). Reactions are started by mixing 155 μL of master mix and 3.5 μL of compound serial dilutions, then 9.1 μL of master mix+compound mixture is aliquoted across 5 96-well plates. Reactions begin with final addition of 2 μL of DNA for a 11.1 μL reaction volume in each well. The entire plate is sealed, and incubated for 2 hrs at 30° C. After 2 hrs, quench the assay using 45 μL of PBS, and transfer 50 μL to a flat-bottom black microplate Quantify the sfGFP and mCherry signals from each well on each plate, taking 3 reads of each plate, and perform data analysis below.
In vitro transcription-translation assay data analysis: Each plate is read three times in channels for both sfGFP and mCherry signals. The average signal across these 3 reads is then calculated for further analysis. Control wells containing no DNA reporter are subtracted from reporter wells in the same column to remove auto-fluorescence of the lysate. Then, the ratio of sfGFP/mCherry is calculated per well, and these ratios are averaged across the triplicate experiments on the same plate. Finally, the ratio of each titration concentration is normalized to the no drug control to create the normalized stalling metric. […]

Consider `O=C(NCC[C@@H]1CCCN1)O[C@@H]1[C@@H](O)CN[C@@H]1Cc1ccc(-c2ccccc2)cc1` [V190505, (2R,3S,4S)-2-{[1,1′-biphenyl]-4-ylmethyl}-4-hydroxypyrrolidin-3-yl N-{2-[(2S)-pyrrolidin-2-yl]ethyl}carbamate], for which the IC50 with MYC, with CCND1, with MCL-1 and in the test with CCNTB1 was less than 10 µM throughout.

On to `COc1ccc(C[C@H]2NC[C@H](O)[C@H]2OC(=O)NCc2cc(F)cc(F)c2)cc1` [V188380, (2R,3S,4S)-4-hydroxy-2-[(4-methoxyphenyl)methyl]pyrrolidin-3-yl N-[(3,5-difluorophenyl)methyl]carbamate], for which the concentration for half-maximal inhibition (IC50) with MYC, with CCND1, in the test on MCL-1 and in the test with CCNTB1 was less than 10 µM each time.

Turning to `COc1ccc(C[C@H]2NC[C@H](O)[C@H]2OC(=O)NCC2CCC2)cc1` [V188318, (2R,3S,4S)-4-hydroxy-2-[(4-methoxyphenyl)methyl]pyrrolidin-3-yl N-(cyclobutylmethyl)carbamate], the IC50 with MYC, in the test on CCND1, in the test with MCL-1 and in the test on CCNTB1 was less than 10 µM in each case.

For the compound `COc1ccc(C[C@H]2NC[C@H](O)[C@H]2OC(=O)NCc2ccc3c(c2)CCNC3)cc1` [V188345, (2R,3S,4S)-4-hydroxy-2-[(4-methoxyphenyl)methyl]pyrrolidin-3-yl N-(1,2,3,4-tetrahydroisoquinolin-6-ylmethyl)carbamate], the IC50 with MYC, with CCND1, with MCL-1 and in the test with CCNTB1 was less than 10 µM throughout.

`COc1ccc(C[C@H]2NC[C@H](O)[C@H]2OC(=O)NCc2ccc(Cn3cccn3)cc2)cc1` [V188314, (2R,3S,4S)-4-hydroxy-2-[(4-methoxyphenyl)methyl]pyrrolidin-3-yl N-{[4-(pyrazol-1-ylmethyl)phenyl]methyl}carbamate]: the IC50 with MYC, in the test with CCND1, in the test on MCL-1 and with CCNTB1 was less than 10 µM in each case.

`O=C(NCc1cccc(F)c1)O[C@@H]1[C@@H](O)CN[C@@H]1Cc1ccc(C2CC2)cc1` [V190518, (2R,3S,4S)-2-[(4-cyclopropylphenyl)methyl]-4-hydroxypyrrolidin-3-yl N-[(3-fluorophenyl)methyl]carbamate]: the IC50 in the test on MYC was 10 to 20 µM; in the test on CCND1, 20 to 30 µM; in the test with MCL-1, 10 to 20 µM; with CCNTB1, less than 10 µM.

Turning to `O=C(NCc1cccc(F)c1)O[C@@H]1[C@@H](O)CN[C@@H]1Cc1ccc(-c2cncs2)cc1` [V190546, (2R,3S,4S)-4-hydroxy-2-{[4-(1,3-thiazol-5-yl)phenyl]methyl}pyrrolidin-3-yl N-[(3-fluorophenyl)methyl]carbamate], the half-inhibitory concentration (IC50) in the test on MYC, in the test with CCND1, in the test on MCL-1 and in the test on CCNTB1 was less than 10 µM each time.

On to `COc1ccc(C[C@H]2NC[C@H](O)[C@H]2OC(=O)NCc2ccc3cnccc3c2)cc1` [V188348, (2R,3S,4S)-4-hydroxy-2-[(4-methoxyphenyl)methyl]pyrrolidin-3-yl N-(isoquinolin-6-ylmethyl)carbamate], for which the IC50 in the test with MYC, with CCND1, in the test with MCL-1 and with CCNTB1 was less than 10 µM each time.

Consider `COc1ccc(C[C@H]2NC[C@H](O)[C@H]2OC(=O)NCc2cccc(F)c2)cc1` [V188379, (2R,3S,4S)-4-hydroxy-2-[(4-methoxyphenyl)methyl]pyrrolidin-3-yl N-[(3-fluorophenyl)methyl]carbamate], for which the IC50 in the test with MYC, with CCND1, with MCL-1 and in the test on CCNTB1 was less than 10 µM in each case.

Take `COc1ccc(C[C@H]2NC[C@H](O)[C@H]2OC(=O)NCC[C@H]2CCCN2)cc1` [V188342, (2R,3S,4S)-4-hydroxy-2-[(4-methoxyphenyl)methyl]pyrrolidin-3-yl N-{2-[(2R)-pyrrolidin-2-yl]ethyl}carbamate]: the half-inhibitory concentration (IC50) in the test with MYC was less than 10 µM; with CCND1, 20 to 30 µM; in the test with MCL-1, 10 to 20 µM; in the test on CCNTB1 it was less than 10 µM.

`COc1ccc(C[C@H]2NC[C@H](O)[C@H]2OC(=O)NCc2ccc(C3CCNC3)cc2)cc1` (stereo partly drawn) [V188354, (2R,3S,4S)-4-hydroxy-2-[(4-methoxyphenyl)methyl]pyrrolidin-3-yl N-{[4-(pyrrolidin-3-yl)phenyl]methyl}carbamate]: the concentration for half-maximal inhibition (IC50) in the test with MYC, in the test on CCND1, with MCL-1 and in the test with CCNTB1 was less than 10 µM throughout.

For `COc1ccc(C[C@H]2NC[C@H](O)[C@H]2OC(=O)NCCc2cnoc2)cc1` [V190449, (2R,3S,4S)-4-hydroxy-2-[(4-methoxyphenyl)methyl]pyrrolidin-3-yl N-[2-(1,2-oxazol-4-yl)ethyl]carbamate], the IC50 in the test with MYC, with CCND1, in the test on MCL-1 and with CCNTB1 was less than 10 µM throughout.

With `COc1ccc(C[C@H]2NC[C@H](O)[C@H]2OC(=O)NCc2ccc(N)nc2)cc1` [V188316, (2R,3S,4S)-4-hydroxy-2-[(4-methoxyphenyl)methyl]pyrrolidin-3-yl N-[(6-aminopyridin-3-yl)methyl]carbamate], the IC50 in the test on MYC, in the test on CCND1, in the test with MCL-1 and with CCNTB1 was less than 10 µM throughout.

With `COc1ccc(C[C@H]2NC[C@H](O)[C@H]2OC(=O)NCc2ccc(N)nn2)cc1` [V188311, (2R,3S,4S)-4-hydroxy-2-[(4-methoxyphenyl)methyl]pyrrolidin-3-yl N-[(6-aminopyridazine-3-yl)methyl]carbamate], the IC50 in the test with MYC, in the test with CCND1, in the test with MCL-1 and in the test with CCNTB1 was less than 10 µM in each case.

Turning to `O=C(NCc1ccccc1)O[C@@H]1[C@@H](O)CN[C@@H]1Cc1ccc(-c2c[nH]nn2)cc1` [V188331, (2R,3S,4S)-4-hydroxy-2-{[4-(1H−1,2,3-triazol-4-yl)phenyl]methyl}pyrrolidin-3-yl N-benzylcarbamate], the concentration for half-maximal inhibition (IC50) in the test on MYC, in the test on CCND1, in the test with MCL-1 and in the test on CCNTB1 was less than 10 µM each time.

On to `COc1ccc(C[C@H]2NC[C@H](O)[C@H]2OC(=O)NCCC[C@H]2CCNC2)cc1` [V188340, (2R,3S,4S)-4-hydroxy-2-[(4-methoxyphenyl)methyl]pyrrolidin-3-yl N-{3-[(3S)-pyrrolidin-3-yl]propyl}carbamate], for which the IC50 in the test with MYC is less than 10 µM; in the test with CCND1, 10 to 20 µM; in the test with MCL-1, less than 10 µM; with CCNTB1, less than 10 µM.

For `COc1ccc(C[C@H]2NC[C@H](O)[C@H]2OC(=O)NCC[C@@H]2CCCCN2)cc1` [V191902, (2R,3S,4S)-4-hydroxy-2-[(4-methoxyphenyl)methyl]pyrrolidin-3-yl N-{2-[(2S)-piperidin-2-yl]ethyl}carbamate], the IC50 was 10 to 20 µM in the test on MYC, more than 30 µM with CCND1, more than 30 µM in the test on MCL-1 and 10 to 20 µM in the test with CCNTB1.
